# Data as given in ChEMBL document CHEMBL1938364, “Discovery of orally active pyrazoloquinolines as potent PDE10 inhibitors for the management of schizophrenia” (Bioorg Med Chem Lett, 2012).
# Active and inactive are the calls of the source. The rule behind the calls is not given here.
# Columns and labels:
# [1] = target: cAMP and cAMP-inhibited cGMP 3',5'-cyclic phosphodiesterase 10A (Homo sapiens, UniProt Q9Y233); experiment: Displacement of [3H]cAMP from human recombinant PDE10A1 by competitive binding assay
# Rattus norvegicus [2] = experiment: Antipsychotic activity in rat schizophrenia model assessed as inhibition of MK801-induced hyperactivity at 30 mg/kg, po; type: functional
# Rattus norvegicus [3] = experiment: Antipsychotic activity in rat schizophrenia model assessed as inhibition of MK801-induced hyperactivity at 3 mg/kg, po; type: functional
# Rattus norvegicus [4] = experiment: Antipsychotic activity in rat schizophrenia model assessed as inhibition of MK801-induced hyperactivity at 10 mg/kg, po; type: functional
# [5] = Displacement of [3H]cAMP from PDE6 by competitive binding assay
# [6] = target: cGMP-specific 3',5'-cyclic phosphodiesterase (Homo sapiens, UniProt O76074); experiment: Displacement of [3H]cAMP from PDE5A1 by competitive binding assay
# Rattus norvegicus [7] = experiment: Antipsychotic activity in orally dosed rat schizophrenia model assessed as inhibition of MK801-induced hyperactivity; type: functional; conditions: po, read-out: MED
# [8] = Drug level in rat brain after 6 hrs; type: ADME, organism-based; conditions: read-out: Ct
# hERG (KCNH2) = hERG (KCNH2) (Homo sapiens, UniProt Q12809); experiment: Inhibition of human ERG at 10 uM
# Rattus norvegicus [9] = organism: Rattus norvegicus; experiment: Ratio of drug level in brain to plasma in rat after 6 hrs; type: ADME, organism-based
# [10] = Clearance in human hepatocytes assessed per million cells; type: ADME, cell-based, Hepatocyte; conditions: read-out: CLH
# Cytochrome P450 3A4 = Cytochrome P450 3A4 (Homo sapiens, UniProt P08684); experiment: Inhibition of CYP3A4 up to 20 uM; type: ADME
# Cytochrome P450 2D6 = Cytochrome P450 2D6 (Homo sapiens, UniProt P10635); experiment: Inhibition of CYP2D6 up to 20 uM; type: ADME
# [11] = Protein binding in rat; type: ADME, organism-based; conditions: plasma, read-out: PB (converted)
# Cytochrome P450 2C9 = Cytochrome P450 2C9 (Homo sapiens, UniProt P11712); experiment: Inhibition of CYP2C9 up to 20 uM; type: ADME
# Rattus norvegicus [12] = experiment: Toxicity in orally dosed rat schizophrenia model assessed as induction of hypolocomotion; type: organism-based; conditions: in vivo, po
# [13] = Clearance in rat hepatocytes assessed per million cells; type: ADME, cell-based, Hepatocyte; conditions: read-out: CLH
# [14] = Clearance in monkey hepatocytes assessed per million cells; type: ADME, cell-based, Macaca mulatta, Hepatocyte; conditions: rhesus monkey, read-out: CLH
# [15] = target: cGMP-inhibited 3',5'-cyclic phosphodiesterase 3A (Homo sapiens, UniProt Q14432); experiment: Displacement of [3H]cAMP from PDE3A by competitive binding assay
# [16] = target: High affinity 3',5'-cyclic-AMP phosphodiesterase 7A (Homo sapiens, UniProt Q13946); experiment: Displacement of [3H]cAMP from PDE7A1 by competitive binding assay
# [17] = target: High affinity cAMP-specific and IBMX-insensitive 3',5'-cyclic phosphodiesterase 8A (Homo sapiens, UniProt O60658); experiment: Displacement of [3H]cAMP from PDE8A1 by competitive binding assay
# [18] = target: Dual specificity calcium/calmodulin-dependent 3',5'-cyclic nucleotide phosphodiesterase 1A (Homo sapiens, UniProt P54750); experiment: Displacement of [3H]cAMP from PDE1A3 by competitive binding assay
# [19] = target: cGMP-dependent 3',5'-cyclic phosphodiesterase (Homo sapiens, UniProt O00408); experiment: Displacement of [3H]cAMP from PDE2A by competitive binding assay
# [20] = target: High affinity cGMP-specific 3',5'-cyclic phosphodiesterase 9A (Homo sapiens, UniProt O76083); experiment: Displacement of [3H]cAMP from PDE9A1 by competitive binding assay
# [21] = target: 3',5'-cyclic-AMP phosphodiesterase 4B (Homo sapiens, UniProt Q07343); experiment: Displacement of [3H]cAMP from PDE4B2 by competitive binding assay
# Chain of 3',5'-cyclic-AMP phosphodiesterase 4B (Q07343 whole entry): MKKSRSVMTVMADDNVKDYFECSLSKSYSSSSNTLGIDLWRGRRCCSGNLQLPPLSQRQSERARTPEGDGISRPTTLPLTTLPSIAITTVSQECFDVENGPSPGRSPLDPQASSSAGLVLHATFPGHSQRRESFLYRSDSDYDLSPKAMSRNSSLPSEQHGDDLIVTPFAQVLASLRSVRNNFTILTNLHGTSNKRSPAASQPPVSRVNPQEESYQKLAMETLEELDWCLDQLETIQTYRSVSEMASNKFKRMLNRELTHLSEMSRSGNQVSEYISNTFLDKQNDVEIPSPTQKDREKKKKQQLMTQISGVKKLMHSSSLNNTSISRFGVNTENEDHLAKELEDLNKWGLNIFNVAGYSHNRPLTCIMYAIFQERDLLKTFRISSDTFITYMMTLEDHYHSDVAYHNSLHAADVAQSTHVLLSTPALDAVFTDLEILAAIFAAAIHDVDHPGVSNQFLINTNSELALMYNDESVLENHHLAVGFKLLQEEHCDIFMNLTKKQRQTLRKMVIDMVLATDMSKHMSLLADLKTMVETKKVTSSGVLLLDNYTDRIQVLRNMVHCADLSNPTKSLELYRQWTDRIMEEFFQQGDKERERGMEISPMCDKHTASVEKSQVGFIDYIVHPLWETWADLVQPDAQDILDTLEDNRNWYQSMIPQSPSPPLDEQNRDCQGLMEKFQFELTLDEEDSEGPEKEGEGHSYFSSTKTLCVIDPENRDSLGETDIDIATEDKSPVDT
# Chain of cAMP and cAMP-inhibited cGMP 3',5'-cyclic phosphodiesterase 10A (Q9Y233 whole entry): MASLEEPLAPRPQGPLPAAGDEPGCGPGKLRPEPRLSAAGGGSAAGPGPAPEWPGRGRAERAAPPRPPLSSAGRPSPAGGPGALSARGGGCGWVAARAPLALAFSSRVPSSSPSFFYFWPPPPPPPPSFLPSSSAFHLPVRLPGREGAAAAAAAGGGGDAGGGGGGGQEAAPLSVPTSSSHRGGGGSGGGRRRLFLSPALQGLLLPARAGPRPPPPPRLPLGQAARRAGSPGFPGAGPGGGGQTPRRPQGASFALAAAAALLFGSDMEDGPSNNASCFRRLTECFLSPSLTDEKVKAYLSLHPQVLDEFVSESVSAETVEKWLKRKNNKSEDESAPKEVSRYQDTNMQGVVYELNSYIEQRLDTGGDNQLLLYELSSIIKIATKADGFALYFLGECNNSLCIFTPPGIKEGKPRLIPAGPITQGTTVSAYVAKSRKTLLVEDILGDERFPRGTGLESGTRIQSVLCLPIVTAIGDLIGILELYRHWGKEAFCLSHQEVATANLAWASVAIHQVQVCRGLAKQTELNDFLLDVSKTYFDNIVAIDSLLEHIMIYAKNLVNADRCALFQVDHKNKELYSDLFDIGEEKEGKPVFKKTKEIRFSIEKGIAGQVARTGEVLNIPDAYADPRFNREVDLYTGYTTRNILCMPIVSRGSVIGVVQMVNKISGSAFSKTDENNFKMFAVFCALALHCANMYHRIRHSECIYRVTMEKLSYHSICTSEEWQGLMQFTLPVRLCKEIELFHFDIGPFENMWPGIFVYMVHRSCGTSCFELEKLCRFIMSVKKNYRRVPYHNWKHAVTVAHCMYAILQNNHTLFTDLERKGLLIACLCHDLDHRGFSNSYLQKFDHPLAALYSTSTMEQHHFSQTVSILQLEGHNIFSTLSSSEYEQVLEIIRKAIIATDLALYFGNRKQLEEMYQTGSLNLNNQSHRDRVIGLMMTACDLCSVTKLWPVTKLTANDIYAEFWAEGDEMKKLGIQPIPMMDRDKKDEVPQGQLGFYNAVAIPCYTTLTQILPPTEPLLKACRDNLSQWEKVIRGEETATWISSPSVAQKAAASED
# Chain of cGMP-dependent 3',5'-cyclic phosphodiesterase (O00408 whole entry): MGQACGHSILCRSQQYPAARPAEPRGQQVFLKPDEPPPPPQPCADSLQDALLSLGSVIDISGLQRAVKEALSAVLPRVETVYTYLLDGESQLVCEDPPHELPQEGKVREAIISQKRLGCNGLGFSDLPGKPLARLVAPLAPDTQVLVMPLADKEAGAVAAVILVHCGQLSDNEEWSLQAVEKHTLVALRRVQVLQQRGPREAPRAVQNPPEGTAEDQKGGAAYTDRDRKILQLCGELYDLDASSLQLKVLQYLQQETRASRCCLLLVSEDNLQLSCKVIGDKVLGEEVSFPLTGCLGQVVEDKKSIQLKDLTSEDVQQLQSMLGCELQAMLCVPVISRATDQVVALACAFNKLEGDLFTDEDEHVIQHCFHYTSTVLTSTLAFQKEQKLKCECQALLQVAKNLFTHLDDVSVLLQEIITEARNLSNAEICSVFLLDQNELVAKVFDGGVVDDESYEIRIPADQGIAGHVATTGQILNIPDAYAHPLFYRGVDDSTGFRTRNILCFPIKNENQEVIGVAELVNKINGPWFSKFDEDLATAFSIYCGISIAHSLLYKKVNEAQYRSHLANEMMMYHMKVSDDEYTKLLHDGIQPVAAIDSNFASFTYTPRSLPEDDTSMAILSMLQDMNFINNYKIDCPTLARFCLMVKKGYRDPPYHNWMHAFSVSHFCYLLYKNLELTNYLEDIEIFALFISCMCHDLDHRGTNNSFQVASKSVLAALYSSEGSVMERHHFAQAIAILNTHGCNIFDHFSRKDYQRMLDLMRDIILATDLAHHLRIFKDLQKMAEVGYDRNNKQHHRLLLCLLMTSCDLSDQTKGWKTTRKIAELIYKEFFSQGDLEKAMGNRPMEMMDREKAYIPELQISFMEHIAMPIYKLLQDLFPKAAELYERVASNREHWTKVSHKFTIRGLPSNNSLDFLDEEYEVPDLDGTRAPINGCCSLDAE
# Chain of Cytochrome P450 2C9 (P11712 whole entry): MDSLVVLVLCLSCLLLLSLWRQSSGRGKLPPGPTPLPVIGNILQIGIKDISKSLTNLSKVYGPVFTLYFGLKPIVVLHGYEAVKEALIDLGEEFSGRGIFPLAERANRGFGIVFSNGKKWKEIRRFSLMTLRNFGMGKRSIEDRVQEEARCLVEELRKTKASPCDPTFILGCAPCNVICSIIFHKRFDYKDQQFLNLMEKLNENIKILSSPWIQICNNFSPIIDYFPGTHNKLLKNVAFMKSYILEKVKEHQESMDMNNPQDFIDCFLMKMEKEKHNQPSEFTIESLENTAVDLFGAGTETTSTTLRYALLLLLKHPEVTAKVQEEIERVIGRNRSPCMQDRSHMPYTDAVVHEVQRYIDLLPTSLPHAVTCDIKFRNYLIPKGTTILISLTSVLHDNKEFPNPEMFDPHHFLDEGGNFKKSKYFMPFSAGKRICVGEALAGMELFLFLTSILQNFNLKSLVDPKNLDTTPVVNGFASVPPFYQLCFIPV
# Chain of Cytochrome P450 3A4 (P08684 whole entry): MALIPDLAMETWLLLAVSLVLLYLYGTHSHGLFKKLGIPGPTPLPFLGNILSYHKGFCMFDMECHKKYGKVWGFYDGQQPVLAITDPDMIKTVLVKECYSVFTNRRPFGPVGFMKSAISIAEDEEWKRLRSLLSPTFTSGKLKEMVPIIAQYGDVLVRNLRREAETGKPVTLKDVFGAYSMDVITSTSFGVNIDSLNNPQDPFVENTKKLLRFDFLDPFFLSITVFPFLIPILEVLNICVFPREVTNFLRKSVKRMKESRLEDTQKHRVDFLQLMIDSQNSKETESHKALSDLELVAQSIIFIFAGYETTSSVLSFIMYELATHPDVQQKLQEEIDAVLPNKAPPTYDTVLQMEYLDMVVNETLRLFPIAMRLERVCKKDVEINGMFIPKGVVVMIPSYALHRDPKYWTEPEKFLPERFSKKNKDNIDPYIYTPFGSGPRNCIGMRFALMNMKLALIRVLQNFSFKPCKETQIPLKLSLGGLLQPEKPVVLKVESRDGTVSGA
# Chain of High affinity cAMP-specific and IBMX-insensitive 3',5'-cyclic phosphodiesterase 8A (O60658 whole entry): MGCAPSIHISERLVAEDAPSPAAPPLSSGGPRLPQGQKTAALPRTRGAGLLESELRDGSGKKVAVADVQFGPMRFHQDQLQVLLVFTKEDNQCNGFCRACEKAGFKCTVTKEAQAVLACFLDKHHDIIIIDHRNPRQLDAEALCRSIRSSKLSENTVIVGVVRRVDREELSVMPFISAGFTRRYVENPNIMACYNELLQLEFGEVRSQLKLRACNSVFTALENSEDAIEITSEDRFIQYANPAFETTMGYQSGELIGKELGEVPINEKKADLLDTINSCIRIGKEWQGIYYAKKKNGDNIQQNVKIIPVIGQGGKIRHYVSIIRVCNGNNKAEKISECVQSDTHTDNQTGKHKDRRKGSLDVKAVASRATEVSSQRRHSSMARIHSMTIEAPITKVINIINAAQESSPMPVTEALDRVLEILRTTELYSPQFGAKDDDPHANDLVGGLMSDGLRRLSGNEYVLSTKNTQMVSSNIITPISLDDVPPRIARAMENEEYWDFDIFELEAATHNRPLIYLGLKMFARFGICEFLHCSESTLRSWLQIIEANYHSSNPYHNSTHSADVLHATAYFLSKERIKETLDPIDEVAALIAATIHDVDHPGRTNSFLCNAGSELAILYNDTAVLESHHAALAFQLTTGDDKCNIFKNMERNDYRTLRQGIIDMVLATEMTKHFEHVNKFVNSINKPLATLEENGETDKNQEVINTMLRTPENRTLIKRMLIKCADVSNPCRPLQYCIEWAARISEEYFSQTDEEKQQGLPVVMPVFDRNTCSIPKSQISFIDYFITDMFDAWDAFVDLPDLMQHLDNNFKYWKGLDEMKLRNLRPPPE
# Chain of High affinity 3',5'-cyclic-AMP phosphodiesterase 7A (Q13946 whole entry): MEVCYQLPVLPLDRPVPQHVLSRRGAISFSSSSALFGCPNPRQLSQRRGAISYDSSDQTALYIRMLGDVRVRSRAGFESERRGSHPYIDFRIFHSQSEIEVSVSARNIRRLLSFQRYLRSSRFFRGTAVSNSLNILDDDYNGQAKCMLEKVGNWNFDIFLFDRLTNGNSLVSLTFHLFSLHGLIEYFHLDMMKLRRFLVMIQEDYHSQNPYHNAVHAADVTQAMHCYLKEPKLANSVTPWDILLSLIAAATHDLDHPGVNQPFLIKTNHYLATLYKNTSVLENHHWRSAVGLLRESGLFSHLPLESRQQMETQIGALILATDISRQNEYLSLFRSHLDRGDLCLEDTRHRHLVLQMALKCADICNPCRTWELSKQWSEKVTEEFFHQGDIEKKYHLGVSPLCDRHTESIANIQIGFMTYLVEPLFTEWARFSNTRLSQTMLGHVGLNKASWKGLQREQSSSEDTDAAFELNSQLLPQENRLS
smiles,measurement,setting,value
Cc1cc(Cl)cc2c(CN3C4CCC3CC4)c3c(C)n[nH]c3nc12,Ki,[1],229 nM
COc1cc(C)c2nc3[nH]nc(C)c3c(CN3CCN[C@H](C)C3)c2c1,Activity,Rattus norvegicus [2],inactive
same,Ki,[1],30 nM
COc1cc(C)c2nc3[nH]nc(C)c3c(CN3CCNCC3)c2c1,Activity,Rattus norvegicus [2],inactive
same,Ki,[1],49 nM
Cc1cc(Cl)cc2c(CN3CC4CC3CO4)c3c(C)n[nH]c3nc12 (stereo not drawn),Ki,[1],60 nM
COc1cc(C)c2nc3[nH]nc(C)c3c(CN3CC[C@@H](O)C3)c2c1,Activity,Rattus norvegicus [2],102%
same,Ki,[1],3 nM
same,Activity,Rattus norvegicus [3],inactive
same,Activity,Rattus norvegicus [4],inactive
same,Ki,[5],4700 nM
same,Ki,[6],6400 nM
COc1cc(C)c2nc3[nH]nc(C)c3c(CN3CCOC(CO)C3)c2c1 (stereo not drawn),Activity,Rattus norvegicus [2],104%
same,Ki,[1],0.6 nM
same,Activity,Rattus norvegicus [3],inactive
same,Activity,Rattus norvegicus [4],inactive
same,Ki,[5],300 nM
same,Ki,[6],5000 nM
COc1cc(C)c2nc3[nH]nc(C)c3c(CN3CCOC(C)(C)C3)c2c1,Ki,[1],171 nM
COc1cc(C)c2nc3[nH]nc(C)c3c(CN3CCCC3)c2c1,Activity,Rattus norvegicus [2],122%
same,minimal effective dose,Rattus norvegicus [7],1 mg/kg
same,Ki,[1],24 nM
same,Activity,Rattus norvegicus [3],96%
same,Activity,Rattus norvegicus [4],107%
Cc1cc(OC(F)(F)F)cc2c(CN3CCCOCC3)c3c(C)n[nH]c3nc12,Ki,[1],19 nM
Cc1n[nH]c2nc3c(OC(F)(F)F)cc(Br)cc3c(CN3CCCOCC3)c12,Ki,[1],37 nM
COc1cc(C)c2nc3[nH]nc(C)c3c(CN3CCCOCC3)c2c1,concentration at 6 h,[8],42 ng/g
same,inhibition at 10 µM,hERG (KCNH2),5.3%
same,BPR,Rattus norvegicus [9],1.56
same,hepatocyte CLint,[10],8.3 µL/min/1e6 cells
same,inhibition (INH),Cytochrome P450 3A4,Not Active
same,inhibition (INH),Cytochrome P450 2D6,Not Active
same,Activity,Rattus norvegicus [2],103%
same,minimal effective dose,Rattus norvegicus [7],3 mg/kg
same,fraction unbound,[11],0.03
same,inhibition (INH),Cytochrome P450 2C9,Not Active
same,MED,Rattus norvegicus [12],30 mg/kg
same,hepatocyte CLint,[13],< 1 µL/min/1e6 cells
same,Activity,Rattus norvegicus [3],66%
same,Activity,Rattus norvegicus [4],120%
same,Ki,[5],2100 nM
same,Ki,[6],9700 nM
same,hepatocyte CLint,[14],6 µL/min/1e6 cells
COc1cc(C)c2nc3[nH]nc(C)c3c(CN3CCC(O)CC3)c2c1,Activity,Rattus norvegicus [2],136%
same,Ki,[1],57 nM
same,Activity,Rattus norvegicus [3],inactive
same,Activity,Rattus norvegicus [4],inactive
COc1cc(C)c2nc3[nH]nc(C)c3c(CN3[C@@H]4CC[C@H]3C[C@@H](O)C4)c2c1,Ki,[1],265 nM
Cc1n[nH]c2nc3ccc(C(F)(F)F)cc3c(CN3CCCOCC3)c12,Ki,[1],104 nM
COc1cc(C)c2nc3[nH]nc(C)c3c(CN3CCC(C(F)(F)F)CC3)c2c1,Ki,[1],871 nM
COc1cc(C)c2nc3[nH]nc(C)c3c(CN3C4CCC3CC4)c2c1,Ki,[1],1200 nM
COc1cc(C)c2nc3[nH]nc(C)c3c(CN3C[C@@H](C)O[C@@H](C)C3)c2c1,Ki,[1],26 nM
COc1cc(C)c2nc3[nH]nc(C)c3c(CN3CCOCC3)c2c1,Activity,Rattus norvegicus [2],109%
same,Activity,Rattus norvegicus [3],inactive
same,Activity,Rattus norvegicus [4],131%
same,Ki,[5],2000 nM
same,Ki,[6],10600 nM
COc1cc(C)c2nc3[nH]nc(C)c3c(CN3CCCCC3)c2c1,Ki,[1],804 nM
COc1cc(C)c2nc3[nH]nc(C)c3c(CN3CCOC(C)C3)c2c1 (stereo not drawn),Activity,Rattus norvegicus [2],130%
same,Ki,[1],3 nM
same,Activity,Rattus norvegicus [3],inactive
same,Activity,Rattus norvegicus [4],88%
same,Ki,[5],8300 nM
same,Ki,[6],8900 nM
Cc1cc(OC(C)C)cc2c(CN3CCCOCC3)c3c(C)n[nH]c3nc12,Ki,[1],8 nM
COc1cc(C)c2nc3[nH]nc(C)c3c(CN3CCC(CO)C3)c2c1 (stereo not drawn),Activity,Rattus norvegicus [2],38%
same,Ki,[1],32 nM
same,Activity,Rattus norvegicus [3],inactive
same,Activity,Rattus norvegicus [4],inactive
Cc1cc(Cl)cc2c(CN3CCCOCC3)c3c(C)n[nH]c3nc12,Activity,Rattus norvegicus [2],87%
same,Ki,[1],41 nM
same,Activity,Rattus norvegicus [3],inactive
same,Activity,Rattus norvegicus [4],inactive
COc1cc(OC)c2nc3[nH]nc(C)c3c(CN3CCCOCC3)c2c1,Ki,[1],14 nM
COCCOc1cc(C)c2nc3[nH]nc(C)c3c(CN3CCCOCC3)c2c1,Ki,[15],> 10000 nM
same,Ki,[16],> 10000 nM
same,Ki,[17],> 10000 nM
same,Ki,[18],> 10000 nM
same,Ki,[1],1 nM
same,Ki,[19],> 10000 nM
same,Ki,[20],> 10000 nM
same,Ki,[5],5900 nM
same,Ki,[21],> 10000 nM
same,Ki,[6],24400 nM
COc1cc(C)c2nc3[nH]nc(C)c3c(CN3CCCC(C(F)(F)F)C3)c2c1 (stereo not drawn),Ki,[1],353 nM
Cc1cc(O)cc2c(CN3CCCOCC3)c3c(C)n[nH]c3nc12,Ki,[1],2 nM
same,Ki,[5],2400 nM
same,Ki,[6],20800 nM
COc1ccc2nc3[nH]nc(C)c3c(CN3CCCOCC3)c2c1,Ki,[1],153 nM
COc1cc(C)c2nc3[nH]nc(C)c3c(CN3CC4CC3CO4)c2c1 (stereo not drawn),Ki,[1],46 nM
COc1cc(C)c2nc3[nH]nc(C)c3c(CN3CCC(F)CC3)c2c1,Ki,[1],202 nM
COc1cc(C)c2nc3[nH]nc(C)c3c(CN3CCNC(=O)C3)c2c1,Activity,Rattus norvegicus [2],inactive
same,Ki,[1],9 nM
